This is an account of results in patent US20170044121A1, “TETRA-O-SUBSTITUTED BUTANE-BRIDGE MODIFIED NDGA DERIVATIVES, THEIR SYNTHESIS AND PHARMAECUTICAL USE” (Erimos Pharmaceuticals LLC, priority 2006, published 2017).

Series [1] deals with HeLa (cervical adenocarcinoma). Put plainly: MTS cell viability assay, HeLa. The class given is cell-based. As to conditions: Homo sapiens, HeLa, read-out: HeLa IC50.
Series [2] concerns A549 (lung carcinoma). Put plainly: MTS cell viability assay, A549. The class given is cell-based. As to conditions: Homo sapiens, A549, read-out: A549 IC50. On the technique in general: Formazan colour is commonly taken as a measure of viable cells.
The subject of series [3] is COS-7 cells. Put plainly: MTT cytotoxicity in COS-7 cells (run with SEAP). The class given is cell-based, green monkey. The note with it: Chlorocebus sabaeus, COS-7, read-out: COS-7 IC50.
Series [4] relates to apoptosis in cultured cells (DNA fragmentation). Put plainly: TiterTACS DNA fragmentation apoptosis assay. The class given is cell-based. As to conditions: TiterTACS apoptosis detection.
For series [5], the system named is VEGF. Put plainly: ELISA VEGF assay (DFO-induced hypoxia). The class given is cell-based. As to conditions: Homo sapiens, read-out: VEGF IC50.
The nature of series [6]: in vitro.
The test system of series [7] is survivin. Put plainly: ELISA survivin assay (cell lysates). The class given is cell-based. As to conditions: Homo sapiens, survivin protein in cell lysates.
The subject of series [8] is MCP-1. Put plainly: MCP-1 protein production in TNF-α-treated primary human keratinocytes. The class given is cell-based. As to conditions: Keratinocyte, read-out: MCP-1 IC50.
In series [9] the test system is Caco-2 cell monolayers. Put plainly: Caco-2 monolayer permeability study. As to conditions: Caco-2, nominal conc. 20 μM.
Series [10] can be described thus: Caco-2 monolayer permeability study. As to conditions: human. In general terms: Passage across Caco-2 layers is used to estimate intestinal permeability.
Series [11] deals with TAT transactivation of the HIV-1 LTR promoter (TAT-TRS). Put plainly: cells. As to conditions: Human immunodeficiency virus 1, COS-7, 48 h, read-out: SEAP EC50. The class given is cell-based.
Where [12] appears, read: 90 minutes, duplicate monolayers.

Broadly, the IC50 is the concentration that inhibits the measured activity by half. In general, melting point refers to the temperature, or range, at which the solid turns liquid. What is called Papp B→A is the apparent permeability from the basolateral to the apical side of a cell layer. For orientation: Papp A→B means the apparent permeability from the apical to the basolateral side of a cell layer. Lower therefore signals poor permeation. One may read the efflux ratio as a quotient of directional permeabilities that is used to spot active efflux. A word on the EC50: it is the concentration that produces a half-maximal response.

The structures appear in SMILES notation. Bounds are passed on as bounds.

`CN(C)CCOc1ccc(CCCCc2ccc(OCCN(C)C)c(OCCN(C)C)c2)cc1OCCN(C)C` [Compound H, 1,4-bis{3,4-bis(2-(N,N′-dimethylamino)-ethoxy)phenyl}-butane] gave a melting point of 65 to 67 °C. Moreover, the IC50 in series [1] was 20 to 30 µM. Moreover, the IC50 in [2] was in the range of 20 to 40 µM. For the same compound, the IC50 in series [3] lay in the range of 20 to 30 µM. Besides, the DNA fragmentation result in series [4] was “Positive”. Moreover, the IC50 in series [5] was > 60 µM. In addition, in series [6], the recovery at 90 min, 20 μM amounted to 96%. The IC50 in series [7] was ~25 µM. Also, in [8], the IC50 was 75 µM. For the same compound, in series [9], the “Polarization Ratio [B-A/A-B]” value stood at 0.15. In [9] (setting [12]), the “Papp A to B” value was found to be 644 nm/s and the “Papp B to A” value turned out to be 101 nm/s. Besides, the “Mass Balance A to B” value in [9] (recovery from apical and basolateral chambers, duplicates) was “≧100%”. The compound also registered an apparent permeability from basolateral to apical (Papp B→A) at 90 min, 20 μM in series [10] (Caco-2, pH 7.4) of 101 nm/s. In [10] (Caco-2, pH 7.4, BCS permeability class, from A-B Papp in Caco-2 versus mannitol and propranolol), the Papp A→B at 90 min is > 142 nm/s. In [10] (Caco-2, pH 7.4, Papp A to B, Caco-2, nominal conc. 20 μM, 90 minutes, duplicate monolayers), the Papp A→B at 90 min, 20 μM stood at 667 nm/s. Moreover, the efflux ratio at 90 min, 20 μM in [10] (Caco-2, pH 7.4, Polarization Ratio [B-A/A-B], Caco-2, nominal conc. 20 μM) was 0.1 to 0.2. In series [11], the concentration giving a half-maximal response (EC50) lay in the range of 30 to 40 µM.
